The nature of data set [1]: in vitro. To be noted: human, uninfected MT-4 cells, CC50 (nM), same protocol as Test A, CellTiter-Glo. In short, it runs like this:
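Cytoprotection read-out: CellTiter-Glo chemiluminescence after 5 days at 37 °C of HIV-IIIb-infected MT-4 cells (m.o.i. 0.003) with compound in 10-point 3-fold dilutions, quadruplicate, 10% FBS. Cytotoxicity (CC50) measured identically without virus.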
A general note: ATP-based viability assays read luminescence as a measure of living cells.

Data set [2] deals with HIV-IIIb. Put plainly: Test A: Antiviral assay in MT4 cells. It counts as cell-based, HIV-1. To be noted: Human immunodeficiency virus 1, IIIB, MT4, 120 h, read-out: % inhibition at 2 μM, percent inhibition of virus-induced cell killing, from dose response curve at 2 uM drug; MT-4 cells infected with HIV-IIIb, 5 days, CellTiter-Glo.

Molecules are shown by their SMILES.

By CC50 is commonly meant the concentration at which the toxic effect on the cells reaches its halfway point. A higher CC50 goes with better tolerance by the cells. A word on the inhibition: it is the relative decrease from the control value, in per cent. In the case of `NC(=O)c1cc(-c2cccnc2[C@H](Cc2cc(F)cc(F)c2)NC(=O)Cn2cc(C(F)F)c(C(F)(F)F)n2)ccc1F` [Example 350, (S)-5-(2-(1-(2-(4-(difluoromethyl)-3-(trifluoromethyl)-1H-pyrazol-1-yl)acetamido)-2-(3,5-difluorophenyl)ethyl)pyridin-3-yl)-2-fluorobenzamide], it took 28100 nM to reach half-maximal cytotoxicity in data set [1] (CC50 at 5 days). Also, the inhibition at 2 µM in data set [2] is 10%.

For the molecule `O=C(Cc1c[nH]c2ccc(F)cc12)N[C@@H](Cc1cc(F)cc(F)c1)c1ncccc1-c1ccc(Cl)c(F)c1` [Example 434], in data set [1], the CC50 at 5 days worked out at 12300 nM. In addition, the inhibition at 2 µM in data set [2] was determined as 20%.

`Cc1c(Br)c(C(F)(F)F)nn1CC(=O)N[C@@H](Cc1cc(F)cc(F)c1)c1ncccc1-c1ccc(F)c(C(N)=O)c1` [Example 275, (S)-5-(2-(1-(2-(4-bromo-5-methyl-3-(trifluoromethyl)-1H-pyrazol-1-yl)acetamido)-2-(3,5-difluorophenyl)ethyl)pyridin-3-yl)-2-fluorobenzamide]: the CC50 at 5 days in data set [1] amounted to 16900 nM. Also, the inhibition at 2 µM in data set [2] was found to be 53%.

On to `CS(=O)(=O)c1ccc(-c2cccnc2[C@H](Cc2cc(F)cc(F)c2)NC(=O)Cn2nc(C(F)(F)F)c3c2CCCC3)cc1` [Example 425, (S)—N-(2-(3,5-difluorophenyl)-1-(3-(4-(methylsulfonyl)phenyl)pyridin-2-yl)ethyl)-2-(3-(trifluoromethyl)-4,5,6,7-tetrahydro-1H-indazol-1-yl)acetamide], for which half-maximal cytotoxicity in data set [1] (CC50 at 5 days) was put at 15600 nM. For the same molecule, the inhibition at 2 µM in data set [2] is 85%.

Molecule `NC(=O)c1cccc(-c2cccnc2[C@H](Cc2cc(F)cc(F)c2)NC(=O)Cn2ccc3c(F)cc(F)cc32)c1` [Example 546C, (S)-3-(2-(1-(2-(4,6-difluoro-1H-indol-1-yl)acetamido)-2-(3,5-difluorophenyl)ethyl)pyridin-3-yl)benzamide] had a 50% cytotoxic concentration (CC50) at 5 days in data set [1] of 16800 nM. In addition, the inhibition at 2 µM in data set [2] came out at 15%.

In turn, `Cc1cccc2[nH]cc(CC(=O)N[C@@H](Cc3cc(F)cc(F)c3)c3ncccc3-c3ccc(Cl)cc3)c12` [Example 534, (S)—N-(1-(3-(4-chlorophenyl)pyridin-2-yl)-2-(3,5-difluorophenyl)ethyl)-2-(4-methyl-1H-indol-3-yl)acetamide] had a cytotoxic concentration (CC50) at 5 days in data set [1] of 9820 nM. Besides, in data set [2], the inhibition at 2 µM is 29%.

Regarding `NC(=O)c1cc(-c2cccnc2[C@H](Cc2cc(F)cc(F)c2)NC(=O)Cc2c[nH]c3ccc(Br)cc23)ccc1F` [Example 445, (S)-5-(2-(1-(2-(5-bromo-1H-indol-3-yl)acetamido)-2-(3,5-difluorophenyl)ethyl)pyridin-3-yl)-2-fluorobenzamide], half-maximal cytotoxicity in data set [1] (CC50 at 5 days) was put at 10700 nM. In data set [2], the inhibition at 2 µM came out at 114%.

Turning to `NC(=O)c1cc(-c2cccnc2[C@H](Cc2cc(F)cc(F)c2)NC(=O)Cn2ccc3ccc(Cl)cc32)ccc1F` [Example 494, (S)-5-(2-(1-(2-(6-chloro-1H-indol-1-yl)acetamido)-2-(3,5-difluorophenyl)ethyl)pyridin-3-yl)-2-fluorobenzamide], in data set [1], the cytotoxic concentration (CC50) at 5 days is 10400 nM. In addition, the inhibition at 2 µM in data set [2] amounted to 17%.

`O=C1Cc2cc(-c3cccnc3[C@H](Cc3cc(F)cc(F)c3)NC(=O)Cn3nc(C(F)F)c4c3C(F)(F)CCC4(F)F)ccc2N1` [Example 548D, (S)-2-(3-(difluoromethyl)-4,4,7,7-tetrafluoro-4,5,6,7-tetrahydro-1H-indazol-1-yl)-N-(2-(3,5-difluorophenyl)-1-(3-(2-oxoindolin-5-yl)pyridin-2-yl)ethyl)acetamide] gave a CC50 at 5 days in data set [1] of 10100 nM. Further, in data set [2], the inhibition at 2 µM worked out at 54%.

On to `Cc1[nH]nc(-c2ccccc2)c1CC(=O)N[C@@H](Cc1cc(F)cc(F)c1)c1ncccc1-c1ccc(F)c(C(N)=O)c1` [Example 184, (S)-5-(2-(2-(3,5-difluorophenyl)-1-(2-(5-methyl-3-phenyl-1H-pyrazol-4-yl)acetamido)ethyl)pyridin-3-yl)-2-fluorobenzamide], for which it took 43200 nM to reach half-maximal cytotoxicity in data set [1] (CC50 at 5 days). Besides, the inhibition at 2 µM in data set [2] came to 5%.

`NC(=O)c1cc(-c2cccnc2[C@H](Cc2cc(F)cc(F)c2)NC(=O)Cn2nc(C(F)(F)F)c3c2CCCC32CC2)ccc1F` [Example 277B, (S)-5-(2-(2-(3,5-difluorophenyl)-1-(2-(3′-(trifluoromethyl)-6′,7′-dihydrospiro[cyclopropane-1,4′-indazole]-1′(5′H)-yl)acetamido)ethyl)pyridin-3-yl)-2-fluorobenzamide] had a CC50 at 5 days in data set [1] of 19300 nM. The inhibition at 2 µM in data set [2] is 96%.

`O=C(Cn1nc(C(F)F)c2c1C(F)(F)C1CC21)N[C@@H](Cc1cc(F)cc(F)c1)c1ncccc1-c1ccc2cnccc2c1` (stereo partly drawn) [Example 436]: the CC50 at 5 days in data set [1] worked out at 11300 nM. Besides, the inhibition at 2 µM in data set [2] came out at 20%.

Turning to `CCOc1nn(CC(=O)N[C@@H](Cc2cc(F)cc(F)c2)c2ncccc2-c2ccc(F)c(C(N)=O)c2)c2c1CCCC2` [Example 179C, (S)-5-(2-(2-(3,5-difluorophenyl)-1-(2-(3-ethoxy-4,5,6,7-tetrahydro-1H-indazol-1-yl)acetamido)ethyl)pyridin-3-yl)-2-fluorobenzamide], the CC50 at 5 days in data set [1] was 22300 nM. Besides, the inhibition at 2 µM in data set [2] was 52%.

On to `O=C(Cc1c[nH]c2ccc(O)cc12)N[C@@H](Cc1cc(F)cc(F)c1)c1ncccc1C#CC1CC1` [Example 53, (S)—N-(1-(3-(cyclopropylethynyl)pyridin-2-yl)-2-(3,5-difluorophenyl)ethyl)-2-(5-hydroxy-1H-indol-3-yl)acetamide], for which, in data set [1], the CC50 at 5 days stood at 28300 nM. Moreover, the inhibition at 2 µM in data set [2] was determined as 33%.

`NC(=O)c1cc(-c2cccnc2[C@H](Cc2cc(F)cc(F)c2)NC(=O)Cn2nc(C(F)(F)F)c3c2COC3)ccc1F` [Example 258, (S)-5-(2-(2-(3,5-difluorophenyl)-1-(2-(3-(trifluoromethyl)-4,6-dihydro-1H-furo[3,4-c]pyrazol-1-yl)acetamido)ethyl)pyridin-3-yl)-2-fluorobenzamide] showed a CC50 at 5 days in data set [1] of over 53200 nM. For the same molecule, in data set [2], the inhibition at 2 µM is 8%.

`COc1ccc2[nH]cc(CC(=O)NC(Cc3cc(F)cc(F)c3)c3nccnc3-c3ccc(Cl)cc3)c2n1` (stereo not drawn) [Example 454, N-(1-(3-(4-chlorophenyl)pyrazin-2-yl)-2-(3,5-difluorophenyl)ethyl)-2-(5-methoxy-1H-pyrrolo[3,2-b]pyridin-3-yl)acetamide] returned a CC50 at 5 days in data set [1] of 11100 nM. Further, the inhibition at 2 µM in data set [2] amounted to 1%.

In data set [1], `NC(=O)c1cccc(-c2cccnc2[C@H](Cc2cc(F)cc(F)c2)NC(=O)Cc2ccccc2)c1` [Example 501, (S)-3-(2-(2-(3,5-difluorophenyl)-1-(2-phenylacetamido)ethyl)pyridin-3-yl)benzamide] had a half-maximal cytotoxic concentration (CC50) at 5 days of 39600 nM. In addition, the inhibition at 2 µM in data set [2] is 11%.

In data set [1], `NC(=O)c1cc(-c2cccnc2[C@H](Cc2cc(F)cc(F)c2)NC(=O)Cn2nc(C(F)(F)F)c3c2CCC3(F)F)ccc1F` [Example 535G, (S)-5-(2-(1-(2-(4,4-difluoro-3-(trifluoromethyl)-5,6-dihydrocyclopenta[c]pyrazol-1(4H)-yl)acetamido)-2-(3,5-difluorophenyl)ethyl)pyridin-3-yl)-2-fluorobenzamide] displayed a CC50 at 5 days of 25300 nM. For the same molecule, in data set [2], the inhibition at 2 µM amounted to 9%.

`NC(=O)c1cc(-c2cccnc2[C@H](Cc2cc(F)cc(F)c2)NC(=O)Cn2cc(C3=CCCCC3)c(C(F)(F)F)n2)ccc1F` [Example 460, (S)-5-(2-(1-(2-(4-cyclohexenyl-3-(trifluoromethyl)-1H-pyrazol-1-yl)acetamido)-2-(3,5-difluorophenyl)ethyl)pyridin-3-yl)-2-fluorobenzamide]: half-maximal cytotoxicity in data set [1] (CC50 at 5 days) was put at 8970 nM. The inhibition at 2 µM in data set [2] worked out at 0%.

For the molecule `CCC(C(=O)N[C@@H](Cc1cc(F)cc(F)c1)c1ncccc1-c1ccc(F)c(C(N)=O)c1)n1nc(C(F)(F)F)cc1C1CC1` (stereo partly drawn) [Example 511C, 5-(2-((1S)-1-(2-(5-cyclopropyl-3-(trifluoromethyl)-1H-pyrazol-1-yl)butanamido)-2-(3,5-difluorophenyl)ethyl)pyridin-3-yl)-2-fluorobenzamide], in data set [1], the cytotoxic concentration (CC50) at 5 days amounted to 11800 nM. Moreover, in data set [2], the inhibition at 2 µM is 17%.

Take `NS(=O)(=O)c1cccc(-c2cccnc2[C@H](Cc2cc(F)cc(F)c2)NC(=O)Cc2c[nH]c3ccc(O)cc23)c1` [Example 44, (S)—N-(2-(3,5-difluorophenyl)-1-(3-(3-sulfamoylphenyl)pyridin-2-yl)ethyl)-2-(5-hydroxy-1H-indol-3-yl)acetamide]: the CC50 at 5 days in data set [1] is over 52500 nM. For the same molecule, the inhibition at 2 µM in data set [2] came out at 96%.

In data set [1], `NC(=O)c1cc(-c2cccnc2[C@H](Cc2cc(F)cc(F)c2)NC(=O)Cn2nc(C(F)(F)F)c3c2CCNC3)ccc1F` [Example 303, (S)-5-(2-(2-(3,5-difluorophenyl)-1-(2-(3-(trifluoromethyl)-4,5,6,7-tetrahydro-1H-pyrazolo[4,3-c]pyridin-1-yl)acetamido)ethyl)pyridin-3-yl)-2-fluorobenzamide] came in with a CC50 at 5 days of 35500 nM. Also, in data set [2], the inhibition at 2 µM was 14%.

Regarding `CC(C)NS(=O)(=O)c1ccc(-c2cccnc2[C@H](Cc2cc(F)cc(F)c2)NC(=O)Cn2nc(C(F)F)c3c2C(F)(F)C2CC32)cc1` (stereo partly drawn) [Example 70, (S)—N-(1-(3-(4-(N-isopropylsulfamoyl)phenyl)-pyridin-2-yl)-2-(3,5-difluorophenyl)ethyl)-2-(3-(difluoromethyl)-5,6-dihydro-4,5-(methano)-6,6-difluoro-cyclopenta[c]pyrazol-1(4H)-yl)acetamide], the CC50 at 5 days in data set [1] amounted to 51200 nM. The inhibition at 2 µM in data set [2] is 56%.

`NC(=O)c1ccc(-c2cccnc2[C@H](Cc2cc(F)cc(F)c2)NC(=O)Cc2c[nH]c3ccc(O)cc23)cc1` [Example 42, (S)-4-(2-(2-(3,5-difluorophenyl)-1-(2-(5-hydroxy-1H-indol-3-yl)acetamido)ethyl)pyridin-3-yl)benzamide]: the CC50 at 5 days in data set [1] was over 53000 nM. In data set [2], the inhibition at 2 µM came out at 96%.

The record behind these values is US9540343B2 (Gilead Sciences, Inc., priority 2011, dated 2017).
